The target of data set [1] is PIB site in AD brain tissue homogenates (thioflavin-T binding site on β-amyloid plaques) (Homo sapiens, UniProt P05067).
Data set [2] has as its target T807 site in AD brain tissue homogenates (NFTs) (Homo sapiens, UniProt P10636). The data set is classed as binding. The conditions noted are these: for Inhibition of specific binding of [3H]T807 to AD brain tissue homogenate: compound at 1 μM concentration.
Data set [3] in a line: Ligand solubility in binding assay media. The data set is classed as physicochemical. Conditions: in water or PBS.
The target of data set [4] is THK-523 site in AD brain tissue homogenates (NFTs) (Homo sapiens, UniProt P10636). The data set is classed as binding. Conditions: for Ki: Ki with [3H]THK-523 as reference radioligand; for Inhibition of specific binding of [3H]THK-523 to AD brain tissue homogenate: compound at 1 μM concentration.
THK-523 site in AD brain tissue homogenates (NFTs), sequence (P10636 623-708 limits assumed): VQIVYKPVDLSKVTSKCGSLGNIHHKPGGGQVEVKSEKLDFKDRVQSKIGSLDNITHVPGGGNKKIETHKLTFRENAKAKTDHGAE
The next data set concerns the target AD brain homogenate (Homo sapiens, UniProt P10636). Briefly: Titration. The class given is binding. Conditions: titration with [18F]THK-523 plus THK-523; curve fit.

Entries after “also recorded” stand apart in the source; their conditions may differ. Like-named read-outs stand apart in the source and are kept apart here. Where only a bound is given, the exact number is not on record here.

T807 site in AD brain tissue homogenates (NFTs), sequence (P10636 623-708 limits assumed): as above
PIB site in AD brain tissue homogenates (thioflavin-T binding site on β-amyloid plaques), sequence (P05067 672-711 limits assumed): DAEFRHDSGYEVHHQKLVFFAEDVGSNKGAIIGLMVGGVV
AD brain homogenate, sequence (P10636 2-758): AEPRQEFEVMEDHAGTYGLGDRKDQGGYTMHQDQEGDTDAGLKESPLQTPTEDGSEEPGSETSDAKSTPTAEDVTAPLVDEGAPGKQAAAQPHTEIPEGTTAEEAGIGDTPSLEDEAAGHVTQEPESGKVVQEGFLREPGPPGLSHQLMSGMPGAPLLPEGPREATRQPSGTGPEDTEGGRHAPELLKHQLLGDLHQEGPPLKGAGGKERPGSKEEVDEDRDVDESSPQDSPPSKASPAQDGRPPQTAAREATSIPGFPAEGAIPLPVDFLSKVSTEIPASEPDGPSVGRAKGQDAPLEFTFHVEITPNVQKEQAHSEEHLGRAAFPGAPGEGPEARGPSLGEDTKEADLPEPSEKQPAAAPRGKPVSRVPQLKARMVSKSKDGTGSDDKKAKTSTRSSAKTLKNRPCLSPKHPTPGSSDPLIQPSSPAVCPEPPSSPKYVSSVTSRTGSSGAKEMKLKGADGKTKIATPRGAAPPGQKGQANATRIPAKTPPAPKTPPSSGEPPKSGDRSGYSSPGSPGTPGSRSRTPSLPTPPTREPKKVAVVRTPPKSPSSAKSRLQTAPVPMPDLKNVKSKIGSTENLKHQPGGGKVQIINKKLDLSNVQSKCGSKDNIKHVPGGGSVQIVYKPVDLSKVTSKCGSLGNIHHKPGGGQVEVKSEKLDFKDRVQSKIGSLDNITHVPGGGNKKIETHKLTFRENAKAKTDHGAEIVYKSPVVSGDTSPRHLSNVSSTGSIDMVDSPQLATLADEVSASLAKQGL

In data set [1], `Nc1ccc(-c2ccc3cc(OCCOCCOCCOCCOCCF)ccc3n2)cc1` [10e, 4-(6-((14-Fluoro-3,6,9,12-tetraoxatetradecyl)oxy)quinolin-2-yl)-aniline] displayed a Ki of 43 ± 39 nM.
For `Nc1ccc(-c2ccc3cc(OCCOCCNCCO)ccc3n2)cc1` [12f, 2-((2-(2-((2-(4-Aminophenyl)quinolin-6-yl)oxy)ethoxy)ethyl)-amino)ethan-1-ol], the Ki in data set [1] and in data set [2] was greater than 1000 nM each time.
Take `Nc1ccc(-c2ccc3cc(OCCOCCOCCOCCF)ccc3n2)cc1` [10d, 4-(6-(2-(2-(2-(2-Fluoroethoxy)ethoxy)ethoxy)ethoxy)quinolin-2-yl)aniline]: the inhibition constant Ki in data set [1] and in data set [2] was greater than 1000 nM throughout.
As for `Nc1ccc(-c2ccc3cc(OCCOCCN4CCOC4=O)ccc3n2)cc1` [12c, 3-(2-(2-((2-(4-Aminophenyl)quinolin-6-yl)oxy)ethoxy)ethyl)-oxazolidin-2-one], the Ki in data set [1] and in data set [2] was greater than 1000 nM in each case.
With `Nc1ccc(-c2ccc3cc(OCCF)ccc3n2)cc1` [THK-523, 4-(6-(2-Fluoroethoxy)quinolin-2-yl)aniline], in data set [3], the Solubility entry was “insoluble”. Moreover, the Ki in data set [1] was greater than 1000 nM; in data set [4] (20% ethanol wash) it was 28 ± 6 nM; in data set [4] (Tris-buffer (pH 7.2) wash) it was 52 ± 14 nM; in data set [4] (neat ethanol wash) it was 45 ± 12 nM; in data set [2] it was 425 ± 383 nM. Also, in data set [4], the “Inhibition of specific binding of [3H]THK-523 to AD brain tissue homogenate” value is on record as “full inhibition”. In addition, the “Inhibition of specific binding of [3H]T807 to AD brain tissue homogenate” value in data set [2] (1 µM) is on record as “failed to inhibit”; in data set [2] (listed as THK-523 (10a), 1 µM), “very low inhibition”.
Consider `Nc1ccc(-c2ccc3cc(OCCOCCF)ccc3n2)cc1` [10b, 4-(6-(2-(2-Fluoroethoxy)ethoxy)quinolin-2-yl)aniline], for which the inhibition constant Ki in data set [1] and in data set [2] was greater than 1000 nM throughout.
On to `Nc1ccc(-c2ccc3cc(OCCF)ccc3n2)cc1` [[^18F]THK-523], for which, at AD brain homogenate, the “Bmax (concentration of maximal binding sites)” value is 1639 ± 235 dpm and the “NS (coefficient of nonspecific binding)” value was 169 ± 3.
As to `Fc1ccc(-c2ccc3c(c2)[nH]c2ccncc23)cn1` [T807], the “Inhibition of specific binding of [3H]THK-523 to AD brain tissue homogenate” value in data set [4] (1 µM) was “failed to inhibit; also recorded: very low inhibition”. Also, the “Inhibition of specific binding of [3H]T807 to AD brain tissue homogenate” value in data set [2] is “full inhibition”.
For the compound `Nc1ccc(-c2ccc3cc(OCCOCCOCCF)ccc3n2)cc1` [10c, 4-(6-(2-(2-(2-Fluoroethoxy)ethoxy)ethoxy)quinolin-2-yl)aniline], the inhibitory constant (Ki) in data set [1] and in data set [2] was greater than 1000 nM throughout.
In data set [1], `Nc1ccc(-c2ccc3cc(OCCOCCOCCOCCOCCOCCF)ccc3n2)cc1` [10f, 4-(6-((17-Fluoro-3,6,9,12,15-pentaoxaheptadecyl)oxy)quinolin-2-yl)aniline] gave an inhibitory constant (Ki) greater than 500 nM.

In general, Ki refers to the equilibrium dissociation constant of an inhibitor or competing ligand from its target.
